Experimental data taken from US20220184008A1, “MODULATORS OF INTRACELLULAR CHLORIDE CONCENTRATION” (FONDAZIONE ISTITUTO ITALIANO DI TECNOLOGIA, priority 2019, published 2022).

Key:
[1] = Phase I metabolism in liver microsomes; format: in vitro ADME; details: read-out: t½ in liver microsomes
Method: (§1) FIG. 3: Assessment of drug-likeness of a selected compound, compound 3.17. a) Chemicophysical properties of bumetanide and compound 3.17 by LC-MS analysis. b) Comparison between urinary volume of WT mice (C57Bl/6N) two hours after treatment with bumetanide (0.2 mg/kg) and compound 3.17 (0.2 mg/kg). c) Assessment of urinary volume of Ts65Dn mouse model of Down syndrome and WT littermates two hours after treatment with compound 3.17 (0.2 mg/kg). Number in parenthesis: number of analyzed animals. Data represents mean±sem, and they are presented as % of the respective vehicle.
(§2) The selected NKCC1 inhibitor compound 3.17 has been evaluated for solubility in aqueous buffers, and stability in plasma and phase I metabolism in vitro (FIG. 3a).

[2] = Solubility in aqueous buffer; format: physicochemical; details: PBS, pH 7.4, aqueous buffer
Method: as §1, §2

[3] = test system: valproic acid (VPA)-induced mouse model of autism; assay: VPA-induced mouse model of autism (three-chamber, male-female interaction, marble burying, grooming); format: in vivo; details: VPA mice, 0.2 mg/kg i.p. seven days
From the text: Right panel, quantification of the social novelty index in mice treated with vehicle (WT, n=15, VPA, n=10) or 3.17 (WT, n=9, VPA, n=12); two-way ANOVA, Tukey's post hoc test, *P<0.05, **P<0.01. (b) Quantification of the interaction time in mice treated with vehicle (WT, n=15, VPA, n=10) or 3.17 (WT, n=10, VPA, n=11); two-way ANOVA, Tukey's post hoc test, **P<0.01. (c) Quantification of the number of marbles buried by mice treated with vehicle (WT, n=17, VPA, n=17) or 3.17 (WT, n=13, VPA, n=13); two-way ANOVA, Tukey's post hoc test, *P<0.05, **P<0.01. (d) Quantification of grooming time for mice treated with vehicle (WT, n=20, VPA, n=17) or 3.17 (WT, n=13, VPA, n=13); two-way ANOVA on Ranks, Tukey's post hoc test, *P<0.05, **P<0.01.
In vivo assessment of the efficacy of the selected NKCC1 inhibitor in the valproic acid (VPA)-induced mouse model of autism, to assess its ability to rescue altered social interaction. The VPA model was obtained by treating pregnant C57bl/6j dams at 12.5 days of pregnancy with 600 mg/kg (i.p.) of VPA dissolved in PBS. […] As control, the offspring of C57bl/6j dams treated at 12.5 with PBS was used. To assess the efficacy of the compound to restore social deficits, juvenile male offspring of both the VPA- and PBS-treated dams were treated (i.p injection) with 0.2 mg/kg of compound 3.17 dissolved in PBS or 2% DMSO dissolved in PBS as control for seven days. Then, mice were tested for their social ability and for repetitive behaviors in different tests. The social ability was tested in the three-chamber test (Silverman et al., 2010). In the three-chamber test, mice are singularly placed in a three-chamber box with openings between the chambers. After ten minutes of free exploration, a never-before-met intruder is placed under one pencil cup in one chamber and an empty pencil cup was placed in the other chamber. […] The social novelty index is measured as follows: [(time spent with the new intruder−time spent with the old intruder)/(time spent with the new intruder+time spent with the old intruder) %].
The sociability during male-female interaction was then assessed (Drapeau et al., 2018). In this test the tested mouse, after 5 minutes of habituation, is evaluated for its approach to a female intruder mouse that is placed for 5 minutes in the same cage. The time spent interacting is calculated as a measure of male-female social interaction. […] Finally, repetitive behaviors were evaluated in two different tests. […] The repetitive behavior is evaluated as the number of marbles buried in the litter. […] During the test, the mouse is placed in a cylindrical support and after 10 minutes of habituation, the repetitive grooming activity is measured during 5 minutes.

Stability in plasma = format: in vitro ADME; details: resistance to hydrolysis, read-out: t½ in plasma
Method: as §1, §2

For `CN(C)S(=O)(=O)c1cc(C(=O)O)ccc1NCCCCCCCC(F)(F)F` [Compound 3.17, 3-(dimethylsulfamoyl)-4-(8,8,8-trifluorooctylamino) benzoic acid], the half-life [1] was over 1 h, the solubility [2] was over 250 µM and the male-female interaction [3] was “completely restored”. The “repetitive behaviors (marbles buried, grooming time)” value [3] was “completely restored”, the sociability index ([3]; three-chamber test) was “completely restored” and the social novelty index ([3]; three-chamber test) was “completely restored”. The half-life (Stability in plasma) was over 2 h.
